# Measurements published in patent US20240391862A1, “(1,4,5-TRISUBSTITUTED-1H-PYRAZOL-3-YL)OXY-2-ALKOXY ALKYL ACIDS AND THEIR DERIVATIVES, THEIR SALTS AND THEIR USE AS HERBICIDAL AGENTS” (Bayer AKtiengesellschaft, priority 2021, published 2024).
# Assays:
# ZEAMX = assay: Post-emergence herbicidal effect and crop plant compatibility, greenhouse pot test; assay type: in vivo, Zea mays; conditions: one-leaf stage, rated visually after about 3 weeks vs untreated controls; for plant injury at 320 g/ha: read-out: Post-emergence effect at 320 g/ha against ZEAMX in %; for plant injury at 80 g/ha: read-out: Post-emergence effect at 80 g/ha against ZEAMX in %
# Procedure, shortened: (§1)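 Visual % activity scored roughly 3 weeks post-spray against untreated plants, where 100% means death and 0% equals control. Plants were treated at the one-leaf stage, 2 to 3 weeks after sowing in sandy loam, at 20 to 320 g/ha.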
# TRZAS = assay: as above; assay type: in vivo, Triticum aestivum; conditions: 20 g/ha, one-leaf stage, rated visually after about 3 weeks vs untreated controls; for percent crop injury (phytotoxicity) to wheat, post-emergence at 20 g/ha: Triticum aestivum, 504 h, read-out: Post-emergence effect at 20 g/ha against TRZAS in %
# Procedure, shortened: as §1
# ORYSA = assay: as above; assay type: in vivo, Oryza sativa; conditions: for Post-emergence effect at 320 g/ha against ORYSA in %: one-leaf stage, rated visually after about 3 weeks vs untreated controls; for Post-emergence effect against ORYSA: visual rating about 3 weeks after treatment, crop plant
# Description: • ALOMY: Alopecurus myosuroides SETVI: Setaria viridis • AVEFA: Avena fatua POLCO: Fallopia convolvulus • AMARE: Amaranthus retroflexus ECHCG: Echinochloa crus-galli • LOLRJ: Lolium rigidum STEME: Stellaria media • VERPE: Veronica persica MATIN: Tripleurospermum inodorum • DIGSA: Digitaria sanguinalis ABUTH: Abutylon threophrasti • TRZAS: Triticum aestivum VIOTR: Viola tricolor • BRSNW: Brassica napus ZEAMX: Zea mays • PHBPU: Ipomoea purpurea GLXMA: Glycine max • ORYSA: Oryza sativa HORMU: Hordeum murinum
# Seeds of monocotyledonous and dicotyledonous weeds and crop plants are placed in sandy loam in plastic or organic planting pots, covered with soil and cultivated in a greenhouse under controlled growth conditions. 2 to 3 weeks after sowing, the trial plants are treated at the one-leaf stage. The compounds of the invention, formulated in the form of wettable powders (WP) or as emulsion concentrates (EC), are then sprayed onto the green parts of the plants as aqueous suspension or emulsion with addition of 0.5% additive at a water application rate of 600 l/ha (converted). After the test plants have been kept in the greenhouse under optimum growth conditions for about 3 weeks, the activity of the preparations is rated visually in comparison to untreated controls. For example, 100% activity=the plants have died, 0% activity=like control plants.
# Tables 20a to 38c below show the effects/crop compatibilities of selected compounds of the general formula (I) on various harmful plants at an application rate corresponding to 20 to 320 g/ha, which were obtained by the trial procedure specified above.
# ABUTH = assay: Post-emergence herbicidal effect, greenhouse pot test; assay type: in vivo, Abutilon theophrasti; conditions: visual rating about 3 weeks after treatment
# Procedure, shortened: as §1
# ALOMY = assay: as above; assay type: in vivo, Alopecurus myosuroides; conditions: visual rating about 3 weeks after treatment
# Procedure, shortened: as §1
# AMARE = assay: as above; assay type: in vivo, Amaranthus retroflexus; conditions: visual rating about 3 weeks after treatment
# Procedure, shortened: as §1
# AVEFA = assay: as above; assay type: in vivo, Avena fatua; conditions: 320 g/ha, visual rating about 3 weeks after treatment
# Procedure, shortened: as §1
# DIGSA = assay: as above; assay type: in vivo, Digitaria sanguinalis; conditions: visual rating about 3 weeks after treatment
# Procedure, shortened: as §1
# ECHCG = assay: as above; assay type: in vivo, Echinochloa crus-galli; conditions: for Post-emergence effect against ECHCG: 20 g/ha, visual rating about 3 weeks after treatment
# Procedure, shortened: as §1
# MATIN = assay: as above; assay type: in vivo, Tripleurospermum inodorum
# Procedure, shortened: as §1
# PHBPU = assay: as above; assay type: in vivo, Ipomoea purpurea; conditions: for pest or weed control at 320 g/ha: Ipomoea purpurea, 504 h, read-out: Post-emergence effect against PHBPU in %
# Procedure, shortened: as §1
# POLCO = assay: as above; assay type: in vivo, Fallopia convolvulus
# Procedure, shortened: as §1
# SETVI = assay: as above; assay type: in vivo, Setaria viridis
# Procedure, shortened: as §1
# VERPE = assay: as above; assay type: in vivo, Veronica persica
# Procedure, shortened: as §1
# VIOTR = assay: as above; assay type: in vivo, Viola tricolor
# Procedure, shortened: as §1
# LOLRI = assay: as above; assay type: in vivo, Lolium rigidum; conditions: 320 g/ha
# Procedure, shortened: as §1
SMILES,Post-emergence effect at 20 g/ha against ZEAMX in % (ZEAMX; 20 g/ha),Post-emergence effect at 20 g/ha against TRZAS in % (TRZAS),Post-emergence effect at 320 g/ha against ORYSA in % (ORYSA),Post-emergence effect against ORYSA (ORYSA; 20 g/ha),Post-emergence effect against ABUTH (ABUTH; 320 g/ha),Post-emergence effect against ALOMY (ALOMY; 320 g/ha),Post-emergence effect against AMARE (AMARE; 320 g/ha),Post-emergence effect against AVEFA (AVEFA),Post-emergence effect against DIGSA (DIGSA; 320 g/ha),Post-emergence effect against ECHCG in % (ECHCG; 80 g/ha),Post-emergence effect against ECHCG in % (ECHCG; 320 g/ha),Post-emergence effect against MATIN in % (MATIN; 320 g/ha),Post-emergence effect against PHBPU in % (PHBPU; 320 g/ha),Post-emergence effect against POLCO in % (POLCO; 80 g/ha),Post-emergence effect against POLCO in % (POLCO; 320 g/ha),Post-emergence effect against SETVI in % (SETVI; 320 g/ha),Post-emergence effect against VERPE in % (VERPE; 80 g/ha),Post-emergence effect against VERPE in % (VERPE; 320 g/ha),Post-emergence effect against VIOTR in % (VIOTR; 320 g/ha),other results
COC(Oc1nn(-c2ccccc2F)c(-c2ccc(F)nc2)c1Br)C(=O)O (centres unmarked) [Example I-24],0%,0%,10%,,,,,,,,,,,,,,,,,"Post-emergence effect at 80 g/ha against ZEAMX in % (ZEAMX): 10%; plant injury at 320 g/ha (ZEAMX; Zea mays, 504 h): 20%"
COC(Oc1nn(-c2ccccc2F)c(-c2ccc(F)nc2)c1Br)C(=O)O (centres unmarked) [Example I-12],0%,0%,20%,,,,,,,,,,,,,,,,,"plant injury at 80 g/ha (ZEAMX; Zea mays, 504 h): 20%"
COC(=O)C(OC)Oc1nn(-c2cccc(Cl)c2F)c(-c2cncc(F)c2)c1I (centres unmarked) [Example I-19],,20%,20%,0%,90%,80%,80%,80%,90%,80%,90%,80%,90%,80%,80%,80%,80%,80%,80%,Post-emergence effect against ORYSA (ORYSA; 80 g/ha): 0%; Post-emergence effect against ABUTH (ABUTH; 80 g/ha): 90%; Post-emergence effect against AMARE (AMARE; 80 g/ha): 80%; Post-emergence effect against PHBPU in % (PHBPU; 20 g/ha): 80%; Post-emergence effect against PHBPU in % (PHBPU; 80 g/ha): 90%; Post-emergence effect against VIOTR in % (VIOTR; 80 g/ha): 80%
COC(=O)C(OC)Oc1nn(-c2cnccn2)c(-c2ccc(F)nc2)c1Br (centres unmarked) [Example I-36],,,20%,,,,,,,,,,,,,,,,,"percent crop injury (phytotoxicity) to wheat, post-emergence at 20 g/ha (TRZAS): 20%; pest or weed control at 320 g/ha (AMARE; Amaranthus retroflexus, 504 h, 320 g/ha, read-out: Post-emergence effect against AMARE): 80%; pest or weed control at 320 g/ha (ECHCG; Echinochloa crus-galli, 504 h, 320 g/ha, read-out: Post-emergence effect against ECHCG in %): 90%; pest or weed control at 320 g/ha (LOLRI; Lolium rigidum, 504 h, read-out: Post-emergence effect against LOLRI in %): 80%; pest or weed control at 320 g/ha (PHBPU; 320 g/ha): 80%; pest or weed control at 320 g/ha (POLCO; Fallopia convolvulus, 504 h, 320 g/ha, read-out: Post-emergence effect against POLCO in %): 80%; pest or weed control at 320 g/ha (SETVI; Setaria viridis, 504 h, 320 g/ha, read-out: Post-emergence effect against SETVI in %): 80%"
"COC(=O)CCOC(=O)C(OC)Oc1nn(-c2ccccc2F)c(-c2ccc(F)nc2)c1Br (single isomer, unassigned) [Example I-13]",10%,,,10%,80%,90%,80%,80%,90%,90%,90%,80%,90%,80%,80%,90%,80%,80%,80%,Post-emergence effect at 80 g/ha against ZEAMX in % (ZEAMX): 20%; Post-emergence effect against ALOMY (ALOMY; 80 g/ha): 80%; Post-emergence effect against DIGSA (DIGSA; 80 g/ha): 90%; Post-emergence effect against ECHCG (ECHCG): 80%; Post-emergence effect against LOLRI in % (LOLRI): 80%; Post-emergence effect against MATIN in % (MATIN; 80 g/ha): 80%; Post-emergence effect against SETVI in % (SETVI; 80 g/ha): 80%
COC(=O)C(C)COC(=O)C(OC)Oc1nn(-c2ccccc2F)c(-c2ccc(F)nc2)c1Br (racemic) [Example I-10],20%,,,10%,90%,90%,100%,80%,90%,90%,100%,90%,90%,80%,80%,90%,90%,90%,90%,Post-emergence effect against ABUTH (ABUTH; 20 g/ha): 80%; Post-emergence effect against ABUTH (ABUTH; 80 g/ha): 90%; Post-emergence effect against AMARE (AMARE; 20 g/ha): 80%; Post-emergence effect against AMARE (AMARE; 80 g/ha): 80%; Post-emergence effect against ECHCG (ECHCG): 80%; Post-emergence effect against LOLRI in % (LOLRI): 90%; Post-emergence effect against MATIN in % (MATIN; 20 g/ha): 80%; Post-emergence effect against MATIN in % (MATIN; 80 g/ha): 80%; Post-emergence effect against PHBPU in % (PHBPU; 80 g/ha): 80%; Post-emergence effect against POLCO in % (POLCO; 20 g/ha): 80%; Post-emergence effect against SETVI in % (SETVI; 80 g/ha): 80%; Post-emergence effect against VIOTR in % (VIOTR; 80 g/ha): 80%
COC(=O)C(OC)Oc1nn(-c2ccc(F)nc2)c(-c2ccc(F)nc2)c1Br (centres unmarked) [Example I-15],,,10%,,,,,,,,,,,,,,,,,"plant injury at 20 g/ha (ZEAMX; Zea mays, 504 h, 20 g/ha, read-out: Post-emergence effect at 20 g/ha against ZEAMX in %): 0%; plant injury at 80 g/ha (ZEAMX; Zea mays, 504 h): 10%; plant injury at 320 g/ha (ZEAMX; Zea mays, 504 h): 20%; percent crop injury (phytotoxicity) to wheat, post-emergence at 20 g/ha (TRZAS): 0%; pest or weed control at 320 g/ha (PHBPU; 320 g/ha): 80%; pest or weed control at 320 g/ha (VIOTR; Viola tricolor, 504 h, 320 g/ha, read-out: Post-emergence effect against VIOTR in %): 80%"
